Where “and” joins values, the source holds several entries; their conditions need not be identical. Equal values may be shown once. Read-outs that look alike come from different tables or passages of the source.
Experiments:
[1] = tested on: flaviviruses; test: Antiviral test of 2-dGlc; type: cell-based; conditions: alone
[2] = tested on: simian varicella virus; test: Simian varicella virus infection in African green monkeys; type: in vivo, African green monkey; conditions: for Viremia, Mean PFU: mg/kg/d i.v.
Method: Fifteen African green monkeys were weighed and bled for clinical chemistry hematology baselines. […] Each of the 15 monkeys were infected with simian varicella virus by intratracheal inoculation of 3.7×10^4 plaque forming units (PFU) of simian varicella virus. […] Control monkeys, service as infection controls, received twice daily intravenous injections of phosphate buffered saline administered at 1.0 ml/kg of body weight. A second group of three monkeys received PALA at 50 mg/kg/day given by intravenous bolus injection into the saphenous vein. A third group was given a lower dose of PALA at 20 mg/kg/day administered in a similar manner. Acyclovir treatment was administered at a subeffective dose of 10 mg/kg/day also given as intravenous bolus injection into the saphenous vein. A fifth group of three monkeys received a combined treatment of PALA at 20 mg/kg/day and acyclovir at 10 mg/kg/day. The drugs were injected into opposite veins at each time of treatment.
Drug solutions were prepared daily prior to treatment. Treatment was begun 24 hours after virus inoculation. PALA was provided as a solution in vials containing 5 ml at 100 mg/ml. The contents of three vials were pooled and seven ml of the pooled drug diluted to 28 ml to give 25 mg/ml. Five ml of this solution was diluted to […] to give 10 mg/ml. Drug was administered twice daily resulting in total daily doses of 50 or 20 mg/kg/day.
Acyclovir received as a gift from Burroughs Wellcome was weighed out as a 200 mg quantity. This was diluted with 5 ml of PBS and pH adjusted to 11.0 with 1N NaOH to effect solution. This was subsequently diluted to 40 ml to give a solution of 5 mg/ml and sterilized by filtration. Again, 1 ml per kg of body weight was administered by intravenous injection twice daily resulting in a dose of 10 mg/kg/day.
The clinical course of simian varicella infection was followed by collection of 2 ml of blood in heparin on day 2, 5, 7, 9 and 11 post-inoculation. The lymphocytes in the 2 ml specimen were separated on ficol-hypaque gradients, washed twice in RPMI-1640 medium and suspended in 10 ml of this medium. The 10 ml volume was divided between two 25 cm^2 tissue culture flasks seeded 24 hours earlier with Vero cells. After 5-7 days incubation, the culture fluids were discarded from the flasks and the cell monolayer fixed with methanol and stained with methylene blue-basic fuchsin. When dried the number of plaques in each flask were counted and the mean number of plaques between the two paired flasks were determined and expressed as a quantitation of viremia per ml of blood.
Rash was evaluated daily using a subjective scoring of severity from ± to 4+. A ± score indicates less than 10 vesicles seen on the skin of the monkey while 4+ indicates numerous vesicles covering the majority of the body surface. General clinical condition was assessed daily and anorexia noted by counting the number of food biscuits consumed daily. Monkeys dying during the course of the experiment were necropsied and simian varicella was determined as the cause of death based on the typical pathology. Baseline hematology and clinical chemistry tests were performed at three days before virus inoculation and again on day 0, immediately before virus inoculation. Following inoculation of simian varicella virus blood was taken for hematology and clinical chemistry tests at 3, 7, 9 and 11 days.
At 14 and 21 days after virus inoculation, blood was taken and the serum separated for quantitation of antibody. Antibody titers were obtained in a serum neutralization test employing a plaque reduction assay. The antibody titer expressed is the dilution of serum resulting in an 80 percent reduction in the number of plaques from that number occurring in control cultures without added serum.

[3] = tested on: herpesvirus; conditions: cited from earlier work
[4] = tested on: respiratory syncytial virus (RSV); test: RSV infection in cotton rats, lung titre; type: in vivo, cotton rat
Source text: 1. 50 to 100 g cotton rats of either sex inoculated i.n. with RS A2 (pool 8-28-92) on day 0.
2. On day +1 animals were given placebo or PALA as follows:
3. All animals killed on day +4 and their lungs tested for RSV levels.

[5] = tested on: vaccinia virus
[6] = PALA 50, rifampicin 10 or both, mg/kg/day i.v.
[7] = day 10, PALA 50, rifampicin 10 mg/kg/d or both

O=CC[C@@H](O)[C@H](O)[C@H](O)CO [2-dGlc, 2-deoxy-D-glucose]
effect against flaviviruses [1]: no effect

Nc1nc2c(ncn2COCCO)c(=O)[nH]1 [Acyclovir, reference compound]
effect on rash / viremia ([2]; PALA 20, Acyclovir 10 or both, mg/kg/day i.v.): no effect in moderating viremia
thrombocytopenia on day 11 ([2]; PALA 50 or Acyclovir 10 mg/kg/day): two monkeys
Viremia, Mean PFU ([2]; day 7, PALA 20, Acyclovir 10 or both): > 1000 PFU and 504 PFU
Viremia, Mean PFU ([2]; day 11, PALA 20, Acyclovir 10 or both): 0 PFU

O=C(O)CP(=O)(O)O [PAA, phosphonoacetic acid, reference compound]
antiherpesvirus activity [3]: selective antiherpesvirus agent

NC(=O)c1ncn([C@@H]2O[C@H](CO)[C@@H](O)[C@H]2O)n1 [RIBAVIRIN, reference compound]
RSV lung titre ([4]; ribavirin 40 mg/kg, alone or + PALA 3 mg/kg, individual animal): 3.4 LOG10 and 2.9 LOG10 and 3.5 LOG10
RSV lung titre, mean (SD) ([4]; ribavirin 40 mg/kg/day, alone or + PALA 3): 3.3 (0.3) LOG10 /G Lung

CO[C@H]1/C=C/O[C@@]2(C)Oc3c(C)c(O)c4c(O)c(c(/C=N/N5CCN(C)CC5)c(O)c4c3C2=O)NC(=O)/C(C)=C\C=C\[C@H](C)[C@H](O)[C@@H](C)[C@@H](O)[C@@H](C)[C@H](OC(C)=O)[C@@H]1C [Rifampicin, reference compound]
lesion development [5, 6]: appreciable skin lesions
virus titers in skin [5, 6]: Higher titers
Weight ([5]; day 0, PALA 50, rifampicin 10 mg/kg/d or both): 5.2 kg and 2.6 kg and 4.2 kg
Vaccinia Lesion Score, group mean ([5]; day 3, PALA 50, rifampicin 10 mg/kg/d or both): 0.4
Vaccinia Lesion Score, group mean ([5]; day 6, PALA 50, rifampicin 10 mg/kg/d or both): 1.2
Vaccinia Lesion Score ([5]; day 6, PALA 50, rifampicin 10 mg/kg/d or both, per monkey): 1.6 and 0.7 and 1.4
Vaccinia Lesion Score, group mean ([5]; day 7, PALA 50, rifampicin 10 mg/kg/d or both): 1.7
Vaccinia Lesion Score, group mean ([5]; day 8, PALA 50, rifampicin 10 mg/kg/d or both): 1.3
Vaccinia Lesion Score, group mean ([5]; day 9, PALA 50, rifampicin 10 mg/kg/d or both): 1.2
Vaccinia Lesion Score, group mean [5, 7]: 1.6
Weight [5, 7]: 4.6 kg and 2.4 kg and 3.8 kg
Vaccinia Lesion Score, group mean ([5]; day 13, PALA 50, rifampicin 10 mg/kg/d or both): 0.9
Weight ([5]; day 14, PALA 50, rifampicin 10 mg/kg/d or both): 4.6 kg and 2.4 kg and 3.8 kg
Weight ([5]; day 21, PALA 50, rifampicin 10 mg/kg/d or both): 4.8 kg and 2.6 kg and 4.0 kg
signs of toxicity ([5]; except one monkey at PALA 125 mg/kg bolus): No appreciable signs of toxicity
Titer of vaccinia virus in skin biopsy ([5]; head prints day 6, PALA 50, rifampicin 10 mg/kg/d or both): 1.5 × 10^7 PFU/ml and 1.2 × 10^5 PFU/ml and 1.1 × 10^5 PFU/ml
